Active and inactive are the calls of the source. No cut-off for these calls is given here.
What was measured:
HL-60 [1] = test: Cytotoxicity against human HL60 cells after 48 hrs by MTT assay; format: functional, cell-based; details: HL-60, 48 h
HL-60 [2] = test: Induction of apoptosis in human HL60 cells assessed as DNA population at sub G0/G1 phase at 10 uM after 6 hrs by flow cytometry; format: functional
HeLa = test: Cytotoxicity against human HeLa cells after 48 hrs by MTT assay; format: functional, cell-based
HL-60 [3] = test: Inhibition of telomerase expression in human HL60 cells at 10 uM after 6 hrs by Western blot analysis; format: functional; details: HL-60, 6 h
[4] = molecular target: DNA topoisomerase 2-alpha (Homo sapiens) (UniProt P11388); test: Inhibition of human topoisomerase 2-mediated relaxation of supercoiled plasmid DNA at 100 uM after 1 hr by electrophoresis analysis
Sequence of DNA topoisomerase 2-alpha (Homo sapiens) (P11388 whole entry): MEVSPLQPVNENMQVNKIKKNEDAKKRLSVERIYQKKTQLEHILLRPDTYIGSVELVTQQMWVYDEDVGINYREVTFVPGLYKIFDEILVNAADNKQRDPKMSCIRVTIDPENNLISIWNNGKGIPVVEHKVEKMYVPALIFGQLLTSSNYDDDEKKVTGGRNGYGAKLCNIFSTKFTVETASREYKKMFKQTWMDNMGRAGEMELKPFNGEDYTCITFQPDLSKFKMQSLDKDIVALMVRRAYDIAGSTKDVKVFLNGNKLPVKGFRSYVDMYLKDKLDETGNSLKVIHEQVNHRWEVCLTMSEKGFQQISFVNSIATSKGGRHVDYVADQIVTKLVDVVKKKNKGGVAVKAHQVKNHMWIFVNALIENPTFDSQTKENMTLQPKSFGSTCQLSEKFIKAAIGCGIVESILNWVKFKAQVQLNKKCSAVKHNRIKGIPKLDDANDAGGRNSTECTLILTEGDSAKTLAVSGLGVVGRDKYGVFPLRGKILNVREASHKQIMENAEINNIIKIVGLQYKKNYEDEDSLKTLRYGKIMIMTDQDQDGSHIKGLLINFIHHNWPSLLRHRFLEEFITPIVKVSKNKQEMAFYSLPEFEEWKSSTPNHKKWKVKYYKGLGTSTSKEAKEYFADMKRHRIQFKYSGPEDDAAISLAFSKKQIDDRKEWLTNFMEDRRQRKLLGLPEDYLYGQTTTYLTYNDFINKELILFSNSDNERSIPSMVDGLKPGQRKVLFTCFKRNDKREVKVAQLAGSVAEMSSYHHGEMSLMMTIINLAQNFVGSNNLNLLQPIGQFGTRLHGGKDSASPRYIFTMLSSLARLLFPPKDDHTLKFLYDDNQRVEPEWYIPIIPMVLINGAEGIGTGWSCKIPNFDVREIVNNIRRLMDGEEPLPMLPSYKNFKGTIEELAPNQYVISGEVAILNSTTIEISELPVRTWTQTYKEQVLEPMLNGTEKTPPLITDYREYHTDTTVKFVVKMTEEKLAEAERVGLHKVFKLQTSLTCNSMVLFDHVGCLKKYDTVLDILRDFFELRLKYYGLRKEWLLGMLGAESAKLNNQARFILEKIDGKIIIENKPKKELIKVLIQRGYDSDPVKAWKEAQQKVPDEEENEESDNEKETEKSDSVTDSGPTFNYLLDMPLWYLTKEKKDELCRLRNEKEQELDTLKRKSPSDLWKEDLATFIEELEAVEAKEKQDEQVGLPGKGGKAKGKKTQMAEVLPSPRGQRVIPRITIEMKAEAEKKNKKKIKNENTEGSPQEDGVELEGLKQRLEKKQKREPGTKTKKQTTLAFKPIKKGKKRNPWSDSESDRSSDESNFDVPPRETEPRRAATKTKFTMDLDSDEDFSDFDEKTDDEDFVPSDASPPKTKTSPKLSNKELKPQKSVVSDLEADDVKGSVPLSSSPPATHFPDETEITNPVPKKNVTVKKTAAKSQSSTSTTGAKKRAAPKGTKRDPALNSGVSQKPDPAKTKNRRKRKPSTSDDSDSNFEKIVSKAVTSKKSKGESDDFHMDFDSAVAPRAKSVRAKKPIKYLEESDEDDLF

[5] = molecular target: DNA topoisomerase 2-alpha (Homo sapiens) (UniProt P11388); test: Inhibition of human topoisomerase 2-mediated relaxation of supercoiled plasmid DNA at 10 uM after 1 hr by electrophoresis analysis

Row | Structure (SMILES) | IC50 (HL-60 [1]) | Activity (HL-60 [2]) | IC50 (HeLa) | inhibition at 10 µM (HL-60 [3]) | inhibition [4] | inhibition [5]
1 | C=C1C(=O)O[C@@H]2[C@H]1CC[C@H](C)[C@]1(O)[C@@H](O)/C(=C/c3ccc(Cl)cc3)C(=O)[C@@]21C | 9 µM | 19.38% | 44 µM | – | – | –
2 | C=C1C(=O)O[C@@H]2[C@H]1CC[C@H](C)[C@]13OC(C)O[C@H]1CC(=O)[C@@]23C (some centres undefined) | 41 µM | 1.9% | 70 µM | – | – | –
3 | C=C1C(=O)O[C@@H]2[C@H]1CC[C@H](C)[C@]13OC(CC)O[C@H]1CC(=O)[C@@]23C (some centres undefined) | 38 µM | 2.71% | 65 µM | – | – | –
4 | C[C@H]1CC[C@@H]2[C@@H](OC(=O)C2(Br)CBr)[C@]2(C)C(=O)C(Br)=C[C@@]12O (some centres undefined) | 13 µM | 2.17% | 76 µM | – | – | –
5 | C=C1C(=O)O[C@@H]2[C@H]1CC[C@H](C)[C@]13OC(c4ccc5c(c4)OCO5)O[C@H]1/C(=C/c1ccc4c(c1)OCO4)C(=O)[C@@]23C (some centres undefined) | 5 µM | 58.75% | 57 µM | – | – | –
6 | C=C1C(=O)O[C@@H]2[C@H]1CC[C@H](C)[C@]13OC(/C=C/c4ccccc4)O[C@H]1/C(=C/C=C/c1ccccc1)C(=O)[C@@]23C (some centres undefined) | 7 µM | 82.97% | 25 µM | – | – | –
7 | C=C1C(=O)O[C@@H]2[C@H]1CC[C@H](C)[C@]13OCO[C@H]1CC(=O)[C@@]23C | 49 µM | 2.86% | 65 µM | – | – | –
8 | C=C1C(=O)O[C@@H]2[C@H]1CC[C@H](C)[C@]13OC(c4ccc(OC)c(OC)c4)O[C@H]1/C(=C/c1ccc(OC)c(OC)c1)C(=O)[C@@]23C (some centres undefined) | 6 µM | 81.38% | 32 µM | – | – | –
9 | C=C1C(=O)O[C@@H]2[C@H]1CC[C@H](C)[C@]1(O)[C@H](OCCC)CC(=O)[C@@]21C | 18 µM | 3.21% | 74 µM | – | – | –
10 | C=C1C(=O)O[C@@H]2[C@H]1CC[C@H](C)[C@]1(O)[C@H](O)CC(=O)[C@@]21C | 50 µM | 1.17% | 68 µM | – | – | –
11 | C=C1C(=O)O[C@@H]2[C@H]1CC[C@H](C)[C@]13OC(c4ccccc4)O[C@H]1/C(=C/c1ccccc1)C(=O)[C@@]23C (some centres undefined) | 6 µM | 69.28% | 31 µM | – | – | –
12 | C=C1C(=O)O[C@@H]2[C@H]1CC[C@H](C)[C@]1(O)C=C(C(O)c3ccc(Cl)cc3)C(=O)[C@@]21C (some centres undefined) | 17 µM | 2.76% | 70 µM | – | – | –
13 | C=C1C(=O)O[C@@H]2[C@H]1CC[C@H](C)[C@]1(O)C=CC(=O)[C@@]21C [PARTHENIN] | 17 µM | 13.69% | 60 µM | – | – | –
14 | C[C@H]1CC[C@H]2[C@H](COCCO)C(=O)O[C@H]2[C@]2(C)C(=O)C=C[C@@]12O | 44 µM | 2.05% | 76 µM | – | – | –
15 | C=C1C(=O)O[C@@H]2[C@H]1CC[C@H](C)[C@]1(O)C=C(CO)C(=O)[C@@]21C | 16 µM | 3.01% | 65 µM | – | – | –
16 | C=C1C(=O)O[C@@H]2[C@H]1CC[C@H](C)[C@]1(O)C=C(C(O)c3ccc4c(c3)OCO4)C(=O)[C@@]21C (some centres undefined) | 18 µM | 2.13% | 73 µM | – | – | –
17 | C=C1C(=O)O[C@@H]2[C@H]1CC[C@H](C)[C@]13OC(c4ccc(OC)cc4)O[C@H]1/C(=C/c1ccc(OC)cc1)C(=O)[C@@]23C (some centres undefined) | 46 µM | 2.17% | 72 µM | – | – | –
18 | C=C1C(=O)O[C@@H]2[C@H]1CC[C@H](C)[C@]1(O)[C@H](OCCCC)CC(=O)[C@@]21C | 42 µM | 1.9% | 70 µM | – | – | –
19 | C=C1C(=O)O[C@@H]2[C@H]1CC[C@H](C)[C@]1(O)C=C(/C=C/CC)C(=O)[C@@]21C | 45 µM | 1.6% | 73 µM | – | – | –

Row | Structure (SMILES) | IC50 (HL-60 [1]) | Activity (HL-60 [2]) | IC50 (HeLa) | inhibition at 10 µM (HL-60 [3]) | inhibition [4] | inhibition [5]
20 | C=C1C(=O)O[C@@H]2[C@H]1CC[C@H](C)[C@]13OC(Cc4ccco4)O[C@H]1/C(=C/Cc1ccco1)C(=O)[C@@]23C (some centres undefined) | 5 µM | 42.38% | 68 µM | – | – | –
21 | C=C1C(=O)O[C@@H]2[C@H]1CC[C@H](C)[C@]1(O)[C@H](OC)CC(=O)[C@@]21C | 32 µM | 1.95% | 68 µM | – | – | –
22 | CC(=O)OC1C=C[C@@]2(O)[C@@H](C)CC[C@H]3C(C)C(=O)O[C@H]3[C@]12C (some centres undefined) | 48 µM | 0.82% | 74 µM | – | – | –
23 | C[C@H]1CC[C@@H]2[C@@H](OC(=O)C2(Br)CBr)[C@]2(C)C(=O)C(Br)C(Br)[C@@]12O (some centres undefined) | 8 µM | 18.33% | 61 µM | – | – | –
24 | C[C@H]1CC[C@@H]2[C@@H](OC(=O)C2(O)CBr)[C@]2(C)C(=O)C=C[C@@]12O (some centres undefined) | 12 µM | 3.25% | 64 µM | – | – | –
25 | C=C1C(=O)O[C@@H]2[C@H]1CC[C@H](C)[C@]1(O)C=C(C(O)/C=C/c3ccccc3)C(=O)[C@@]21C (some centres undefined) | 46 µM | 2.44% | 78 µM | – | – | –
26 | C=C1C(=O)O[C@@H]2[C@H]1CCC(C)=C1C=CC(=O)[C@]12C | 16 µM | 2.95% | 74 µM | – | – | –
27 | C=C1C(=O)O[C@@H]2[C@H]1CC[C@H](C)[C@]1(O)C=C(C(O)c3ccccc3)C(=O)[C@@]21C (some centres undefined) | 9 µM | 13.89% | 58 µM | – | – | –
28 | C=C1C(=O)O[C@@H]2[C@H]1CC[C@H](C)[C@]13OC(c4ccc(Cl)cc4)O[C@H]1/C(=C/c1ccc(Cl)cc1)C(=O)[C@@]23C (some centres undefined) | 3 µM | 94.1% | 12 µM | 80% | Active | Active
29 | C=C1C(=O)O[C@@H]2[C@H]1CC[C@H](C)[C@]13OCO[C@H]1C(CO)(CO)C(=O)[C@@]23C | 17 µM | 2.61% | 70 µM | – | – | –
30 | C[C@H]1CC[C@H]2[C@H](COCCO)C(=O)O[C@H]2[C@]2(C)C(=O)C[C@@H](OCCO)[C@@]12O | 55 µM | 2.19% | 72 µM | – | – | –
31 | C=C1C(=O)O[C@@H]2[C@H]1CC[C@H](C)[C@]1(O)[C@H](OCC)CC(=O)[C@@]21C | 60 µM | 4.51% | 76 µM | – | – | –
32 | C=C1C(=O)O[C@@H]2[C@H]1CC[C@H](C)[C@]1(O)C=CC(=O)O[C@@]21C | 18 µM | 2.98% | 67 µM | – | – | –
33 | C=C1C(=O)O[C@@H]2[C@H]1CC[C@H](C)[C@]1(O)C=C(/C=C/CCC)C(=O)[C@@]21C | 42 µM | 2.33% | 68 µM | – | – | –
34 | C=C1C(=O)O[C@@H]2[C@H]1CC[C@H](C)[C@]1(O)[C@H](OCCO)CC(=O)[C@@]21C | 44 µM | 1.81% | 72 µM | – | – | –
35 | CC1C(=O)O[C@@H]2[C@H]1CC[C@H](C)[C@]1(O)C=CC(O)[C@@]21C (some centres undefined) | 48 µM | 1.43% | 64 µM | – | – | –
36 | C=C1C(=O)O[C@@H]2[C@H]1CC[C@H](C)[C@]1(O)C=C(/C=C/CCCCC)C(=O)[C@@]21C | 24 µM | 6.78% | 47 µM | – | – | –
37 | C[C@H]1CC[C@@H]2[C@@H](OC(=O)C2(Br)CBr)[C@]2(C)C(=O)C=C[C@@]12O (some centres undefined) | 12 µM | 1.93% | 67 µM | – | – | –

— ChEMBL document CHEMBL1153630, “Structure-activity relationship (SAR) of parthenin analogues with pro-apoptotic activity: Development of novel anti-cancer leads” (Bioorg Med Chem Lett, 2009)
